We go through one compound from patent publication US20070254332A1, “Method for Readily Detecting Class C Beta-Lactamase-Producing Bacteria” (JAPAN HEALTH SCIENCES FOUNDATION, priority 2003, published 2007).

Common to all, as to type: cell-based
Assay [1] deals with Klebsiella pneumoniae KP1 15 (IMP-1: Class B). In words: MIC by trace quantity liquid dilution method.
Assay [2] relates to E. cloacae HKY226. In words: Disk test, CAZ disk versus CAZ + APB disk (second aspect). The conditions noted are these: overnight culturing.
Protocol: (§2) In the same manner as in Embodiment 1, the test bacterium was inoculated onto a Mueller-Hinton agar medium, and KB disks (6 mm in diameter) of CAZ were positioned at least 3 cm apart center-on-center. […] After overnight culturing, the diameters of the growth inhibitory zones around the two CAZ disks were measured.
Assay [3] relates to K. pneumoniae SHV-12 Class A. Described as above. The conditions noted are these: overnight culturing.
Protocol: as §2
Assay [4] deals with P. aeruginosa NCB03-192. In words: MIC by trace quantity liquid dilution method. The conditions noted are these: Pseudomonas aeruginosa, NCB03192. Here is the method: (§1) Following overnight culturing, the MIC was measured.
Assay [5] concerns S. marcescens S94. In words: MIC by trace quantity liquid dilution method. The conditions noted are these: Serratia marcescens. Here is the method:
as §1

Assay [6] has as its system K. pneumoniae NCB02189 DHA-1 + CTX-M9. As to the kind of experiment: MIC by trace quantity liquid dilution method. The conditions noted are these: Klebsiella pneumoniae. Here is the method:
as §1

Assay [7] deals with Klebsiella pneumoniae NU2936 (MOX-1: Class C). In words: MIC by trace quantity liquid dilution method. Here is the method: as §1
Assay [8] deals with C. freundii HKY543. In words: MIC by trace quantity liquid dilution method. The conditions noted are these: Citrobacter freundii. Here is the method:
as §1

Assay [9] has as its system E. cloacae HKY226. In words: MIC by trace quantity liquid dilution method. The conditions noted are these: Enterobacter cloacae. Here is the method:
as §1

The subject of assay [10] is E. coli NS12 CMY-2. As to the kind of experiment: MIC by trace quantity liquid dilution method. The conditions noted are these: Escherichia coli, NS12CMY2. Here is the method: as §1
For assay [11], the system named is Klebsiella pneumoniae HKY402 (SHV-12: Class A). As to the kind of experiment: MIC by trace quantity liquid dilution method.
In assay [12] the test system is C. freundi HKY543. In words: Disk test, CAZ disk versus CAZ + APB disk (second aspect). The conditions noted are these: overnight culturing.
Protocol: as §2

≈ marks a conversion by molar mass, not a printed value.

In the case of `CC(C)(O/N=C(\C(=O)N[C@@H]1C(=O)N2C(C(=O)[O-])=C(C[n+]3ccccc3)CS[C@H]12)c1csc(N)n1)C(=O)O` [CAZ, ceftazidime], the minimum inhibitory concentration (MIC) in [1] worked out at 256 µg/mL (≈ 468 µM); in assay [4], 16 µg/mL (≈ 29.3 µM); in [5], 64 µg/mL (≈ 117 µM); in assay [6], 64 µg/mL (≈ 117 µM); in assay [7], 64 µg/mL (≈ 117 µM); in assay [8] it was 64 µg/mL (≈ 117 µM). Also, the minimum inhibitory concentration (MIC) in assay [9] is 256 µg/mL (≈ 468 µM); in assay [10] it was 64 µg/mL (≈ 117 µM); in assay [11], over 512 µg/mL. For the same compound, the “Inhibitory zone around the disk” value in [2] was “No inhibitory zone was observed around”; in assay [3] it was “No inhibitory zones observed around”; in assay [12], “A small inhibitory zone was observed”.
